Assay results: US20240254109A1, “SALT CONTAINING PIPERAZINE POLYCYCLIC DERIVATIVE, CRYSTAL FORM THEREOF, PREPARATION METHOD THEREFOR, AND USE THEREOF” (Shanghai Hansoh Biomedical Co., Ltd., priority 2021, published 2024)

Assays:
[1] = Pharmacokinetic assay in Balb/c mice (plasma and brain tissue); type: in vivo; details: p.o. 5 mg/kg
Method: (III). Pharmacokinetic Assay in Balb/c Mice
Balb/c mice were used as test animals. The pharmacokinetic behavior in mouse body (plasma and brain tissue) of the compounds of Examples of the present invention was studied at an oral administration dose of 5 mg/kg.
Male Balb/c mice (12 mice per group), purchased from Shanghai Jiesijie Laboratory Animal Co., LTD, with Certificate No.: SCXK (Shanghai) 2013-0006 N0.311620400001794.
The test compound was dissolved in 0.5% CMC-Na (1% Tween80) by sonication to formulate a clear solution or homogeneous suspension.
After an overnight fast, male Balb/c mice (12 mice per group) were administered p.o. with the test compound at an administration dose of 5 mg/kg and an administration volume of 10 mL/kg.
0.2 mL of blood was taken from the heart of the mouse before administration and at 1, 2, 4, 8 and 24 hours after administration, and the mice were sacrificed with CO2. The samples were stored in EDTA-K2 tubes, and centrifuged for 6 minutes at 4° C., 6000 rpm to separate the plasma. The plasma samples were stored at −80° C. Whole brain tissue was taken out, weighed, placed in a 2 mL centrifuge tube, and stored at −80° C.
1) 160 μL of acetonitrile was added to 40 μL of the plasma sample for precipitation, and then the mixture was centrifuged for 5 to 20 minutes at 3500×g.
2) 90 μL of acetonitrile containing internal standard (100 ng/mL) was added to 30 μL of the plasma and brain homogenate sample for precipitation, and then the mixture was centrifuged for 8 minutes at 13000 rpm.
3) 70 μL of water was added to 70 μL of the treated supernatant and mixed by vortex for 10 minutes. 20 μL of the supernatant was taken to analyze the concentration of the test compound by LC/MS/MS. LC/MS/MS analytical instrument: AB Sciex API 4000 Qtrap.
• Liquid chromatography condition: Shimadzu LC-20AD pump • Chromatographic column: Agilent ZORBAX XDB-C18 (50×2.1 mm, […]); Mobile phase: Eluent A was 0.1% formic acid in water, and Eluent B was acetonitrile • Flow rate: 0.4 mL/min • Elution time: 0-4.0 minutes, the eluent is as follows:
The main parameters of pharmacokinetics were calculated by WinNonlin 6.1.

[2] = Solid stability experiment of crystal form of salt; type: physicochemical; details: for Maximum single impurity increase % / Total impurity increase %: listed as Crystal form B of p-toluenesulfonate
Method: 4. Solid Stability Experiment
The physicochemical stability of crystal form of salt of compound N-(trans-3-(2-(4-(2,3-dichlorophenyl)piperazin-1-yl)ethyl)cyclobutyl)oxazole-2-carboxamide under the conditions of light 50001×, high temperature 60° C., high humidity 92.5% RH and high temperature and high humidity 50° C. 75% RH was investigated, which provided a basis for crystal form screening and compound crystal form storage.
About 1 mg of different crystal forms of salt were taken and placed under the conditions of light 50001×, high temperature 60° C., high humidity 92.5% RH, high temperature and high humidity 50° C. 75% RH for 5 days and 10 days. The salt content was determined by HPLC and external standard method, and the change of relevant substances was calculated by chromatographic peak area normalization method.

[3] = Stability study of salt (5 days and 10 days, HPLC related substances); type: physicochemical
Method: 2.1.3 Stability Study of Salt
Hydrochloride and p-toluenesulfonate of N-(trans-3-(2-(4-(2,3-dichlorophenyl)piperazin-1-yl)ethyl)cyclobutyl)oxazole-2-carboxamide were weighed about 1 mg, respectively, and then placed under light (5000 lux), high temperature (60° C.), high humidity (92.50 RH), high temperature and high humidity (50° C. and 75% RH) for 5 days and 10 days, then a diluent DMSO was added to prepare a solution with salt concentration of about 1 mg/mL.
The chromatographic peak area normalization method was used to calculate the changes of related substances.

[4] = GWGS-5 d (high temperature and high humidity)
[5] = GWGS-10 d (high temperature and high humidity)

In the case of O=C(N[C@H]1C[C@H](CCN2CCN(c3cccc(Cl)c3Cl)CC2)C1)c1ncco1 [Example 12A, N-(Trans-3-(2-(4-(2,3-dichlorophenyl)piperazin-1-yl)ethyl)cyclobutyl)oxazole-2-carboxamide], the Peak time tmax ([1]; Brain) is reported as 1 h and the Peak time tmax ([1]; Plasma) is reported as 0.5 h.

Molecule O=C(N[C@H]1C[C@@H](CCN2CCN(c3cccc(Cl)c3Cl)CC2)C1)c1ncco1 [Example 12B, N-(Cis-3-(2-(4-(2,3-dichlorophenyl)piperazin-1-yl)ethyl)cyclobutyl)oxazole-2-carboxamide] has a Peak time tmax ([1]; Brain) of 1 h and a Peak time tmax ([1]; Plasma) of 0.5 h.

In the case of O=C(N[C@H]1C[C@H](CCN2CCN(c3cccc(Cl)c3Cl)CC2)C1)c1cccc2ncccc12 [Example 19A, N-(trans-3-(2-(4-(2,3-dichlorophenyl)piperazin-1-yl)ethyl)cyclobutyl)quinoline-5-carboxamide], the Peak time tmax ([1]; Brain) is reported as 1 h and the Peak time tmax ([1]; Plasma) is reported as 0.5 h.

CCN(C)C(=O)NC1CC(CCN2CCN(c3cccc4sccc34)CC2)C1 (stereo not shown) [Example 24, 3-(3-(2-(4-(Benzo[b]thiophen-4-yl)piperazin-1-yl)ethyl)cyclobutyl)-1-ethyl-1-methylurea] showed a Peak time tmax ([1]; Brain) of 1 h and a Peak time tmax ([1]; Plasma) of 0.5 h.

In the case of O=C(NC1CC(CCN2CCCN(c3cccc(Cl)c3Cl)CC2)C1)c1ccco1 (stereo not shown) [Example 25, N-(3-(2-(4-(2,3-Dichlorophenyl)-1,4-diazepan-1-yl)ethyl)cyclobutyl)furan-2-carboxamide], the Peak time tmax ([1]; Brain) is reported as 1 h and the Peak time tmax ([1]; Plasma) is reported as 1 h.

With O=C(N[C@H]1C[C@H](CCN2CCN(c3cccc(Cl)c3Cl)CC2)C1)c1ncco1 [crystal form B of p-toluenesulfonate, N-(trans-3-(2-(4-(2,3-dichlorophenyl)piperazin-1-yl)ethyl)cyclobutyl)oxazole-2-carboxamide] the “Maximum single impurity increase %” value ([2]; High humidity, 5 Days) was less than 0.02%, the “Total impurity increase %” value ([2]; High humidity, 5 Days) was less than 0.02% and the “Total impurity increase %” value ([2]; High temperature, 10 Days) was less than 0.02%. The “Maximum single impurity increase %” value ([2]; Light, 5 Days) was 0.13%, the “Total impurity increase %” value ([2]; Light, 5 Days) was 0.03% and the “Maximum single impurity increase %” value ([2]; Light, 10 Days) was 0.13%. For the same molecule, the “Total impurity increase %” value ([2]; Light, 10 Days) was 0.19%, the single impurity ([2]; light conditions) was “increases significantly” and the crystal form stability ([2]; other conditions than light) was “stable”.

For O=C(N[C@H]1C[C@H](CCN2CCN(c3cccc(Cl)c3Cl)CC2)C1)c1ncco1 [p-toluenesulfonate, N-(trans-3-(2-(4-(2,3-dichlorophenyl)piperazin-1-yl)ethyl)cyclobutyl)oxazole-2-carboxamide], the “RRT 0.190 Area %” value ([3]; 0 d) was 0.317%, the “RRT 0.210 Area %” value ([3]; 0 d) was 0.073% and the “RRT 1.000 Area %” value ([3]; 0 d) was 99.217%. The “RRT 1.050 Area %” value ([3]; 0 d) was 0.149%, the “RRT 1.190 Area %” value ([3]; 0 d) was 0.178% and the “RRT 1.540 Area %” value ([3]; 0 d) was 0.067%. The “total Area % (related substances)” value ([3]; 0 d) was 0.783%, the “RRT 0.190 Area %” value ([3]; GS-5 d (high humidity)) was 0.213% and the “RRT 0.210 Area %” value ([3]; GS-5 d (high humidity)) was 0.074%. For the same molecule, the “RRT 1.000 Area %” value ([3]; GS-5 d (high humidity)) was 99.310%, the “RRT 1.050 Area %” value ([3]; GS-5 d (high humidity)) was 0.145% and the “RRT 1.190 Area %” value ([3]; GS-5 d (high humidity)) was 0.177%. For the same molecule, the “RRT 1.540 Area %” value ([3]; GS-5 d (high humidity)) was 0.080%, the “total Area % (related substances)” value ([3]; GS-5 d (high humidity)) was 0.690% and the “RRT 0.190 Area %” value ([3]; GS-10 d (high humidity)) was 0.233%. For the same molecule, the “RRT 0.210 Area %” value ([3]; GS-10 d (high humidity)) was 0.075%, the “RRT 1.000 Area %” value ([3]; GS-10 d (high humidity)) was 99.298% and the “RRT 1.050 Area %” value ([3]; GS-10 d (high humidity)) was 0.143%. For the same molecule, the “RRT 1.190 Area %” value ([3]; GS-10 d (high humidity)) was 0.180%, the “RRT 1.540 Area %” value ([3]; GS-10 d (high humidity)) was 0.071% and the “total Area % (related substances)” value ([3]; GS-10 d (high humidity)) was 0.702%. For the same molecule, the “RRT 0.190 Area %” value ([3]; GW-5 d (high temperature)) was 0.163%, the “RRT 0.210 Area %” value ([3]; GW-5 d (high temperature)) was 0.072% and the “RRT 1.000 Area %” value ([3]; GW-5 d (high temperature)) was 99.400%. For the same molecule, the “RRT 1.050 Area %” value ([3]; GW-5 d (high temperature)) was 0.121%, the “RRT 1.190 Area %” value ([3]; GW-5 d (high temperature)) was 0.175% and the “RRT 1.540 Area %” value ([3]; GW-5 d (high temperature)) was 0.068%. For the same molecule, the “total Area % (related substances)” value ([3]; GW-5 d (high temperature)) was 0.600%, the “RRT 0.190 Area %” value ([3]; GW-10 d (high temperature)) was 0.224% and the “RRT 0.210 Area %” value ([3]; GW-10 d (high temperature)) was 0.075%. For the same molecule, the “RRT 1.000 Area %” value ([3]; GW-10 d (high temperature)) was 99.319%, the “RRT 1.050 Area %” value ([3]; GW-10 d (high temperature)) was 0.131% and the “RRT 1.190 Area %” value ([3]; GW-10 d (high temperature)) was 0.178%. The “RRT 1.540 Area %” value ([3]; GW-10 d (high temperature)) was 0.073%, the “total Area % (related substances)” value ([3]; GW-10 d (high temperature)) was 0.681% and the “RRT 0.190 Area %” value [3, 4] was 0.348%. For the same molecule, the “RRT 0.210 Area %” value [3, 4] was 0.072%, the “RRT 1.000 Area %” value [3, 4] was 99.204% and the “RRT 1.050 Area %” value [3, 4] was 0.137%. The “RRT 1.190 Area %” value [3, 4] was 0.170%, the “RRT 1.540 Area %” value [3, 4] was 0.070% and the “total Area % (related substances)” value [3, 4] was 0.796%. The “RRT 0.190 Area %” value [3, 5] was 0.319%, the “RRT 0.210 Area %” value [3, 5] was 0.074% and the “RRT 1.000 Area %” value [3, 5] was 99.246%. For the same molecule, the “RRT 1.050 Area %” value [3, 5] was 0.128%, the “RRT 1.190 Area %” value [3, 5] was 0.168% and the “RRT 1.540 Area %” value [3, 5] was 0.065%. For the same molecule, the “total Area % (related substances)” value [3, 5] was 0.754%, the “RRT 0.190 Area %” value ([3]; GZ-5 d (light)) was 0.266% and the “RRT 0.210 Area %” value ([3]; GZ-5 d (light)) was 0.072%. The “RRT 0.890 Area %” value ([3]; GZ-5 d (light)) was 0.130%, the “RRT 1.000 Area %” value ([3]; GZ-5 d (light)) was 99.184% and the “RRT 1.050 Area %” value ([3]; GZ-5 d (light)) was 0.101%. The “RRT 1.190 Area %” value ([3]; GZ-5 d (light)) was 0.171%, the “RRT 1.540 Area %” value ([3]; GZ-5 d (light)) was 0.075% and the “total Area % (related substances)” value ([3]; GZ-5 d (light)) was 0.816%. The “RRT 0.190 Area %” value ([3]; GZ-10 d (light)) was 0.324%, the “RRT 0.210 Area %” value ([3]; GZ-10 d (light)) was 0.073% and the “RRT 0.890 Area %” value ([3]; GZ-10 d (light)) was 0.232%. For the same molecule, the “RRT 1.000 Area %” value ([3]; GZ-10 d (light)) was 99.028%, the “RRT 1.050 Area %” value ([3]; GZ-10 d (light)) was 0.115% and the “RRT 1.190 Area %” value ([3]; GZ-10 d (light)) was 0.162%. For the same molecule, the “RRT 1.540 Area %” value ([3]; GZ-10 d (light)) was 0.066%, the “total Area % (related substances)” value ([3]; GZ-10 d (light)) was 0.972% and the changes in impurities ([3]; high temperature, high humidity, and high temperature and high humidity, 5 and 10 days) was “no significant changes in impurities”.
